From paper PMC7567103 (Nature Communications, 2020)

Key:
Assay type in all cases: cell-based
GHRHR V129A = biological target: T1, GHRHR V129A (Homo sapiens, UniProt Q02643, V129A); assay: cAMP accumulation, V129A; conditions: mean ± SEM, n ≥ 3
T1 construct: GHRHR(23-423)-; HA signal peptide (replaces native signal M1-G22) (N); expressed in transfected cells; host or cells: HEK 293T, pcDNA3.1, transient
From the text: (§1) Fig. 2 Molecular recognition of GHRH by GHRHR and comparison of that with LA-PTH–PTH1R and GLP-1–GLP-1R. a Detailed interaction between GHRH and the TMD pocket of GHRHR with hydrogen bonds shown as dotted lines. b, c Pairwise comparison of GHRH bound to GHRHR with GLP-1 and LA-PTH in complex with their corresponding receptors, showing the relative positions of peptide ligands. Lime green, GHRHR; blue, GHRH; red, PTH1R and LA-PTH; purple, GLP-1R and GLP-1. d–f The effects of mutation in the ligand-binding pocket on cAMP accumulation. cAMP levels were measured in wild-type (WT) receptor and alanine mutants in ECL1, 2, and 3 (d), TM1, 2, and 3 (e), and TM5, 6, and 7 (f). cAMP signals were normalized to the maximum response of WT and concentration–response curves were analyzed using a three-parameter logistic equation. Data shown are means ± S.E.M. of at least three independent experiments (n = 3–5), conducted in triplicate. Source data are provided as a Source data file.
(§2) GHRH-stimulated cAMP accumulation was measured by a LANCE Ultra cAMP kit (PerkinElmer). […] After 1 h RT incubation, TR-FRET signals (excitation: 320 nm, emission: 615 and 665 nm) were measured by an EnVision (PerkinElmer).

GHRHR E123A = biological target: T2, GHRHR E123A (Homo sapiens, UniProt Q02643, E123A); assay: cAMP accumulation, E123A; conditions: mean ± SEM, n ≥ 3
T2 construct: GHRHR(23-423)-; HA signal peptide (replaces native signal M1-G22) (N); expressed in transfected cells; host or cells: HEK 293T, pcDNA3.1, transient
T2 sequence (Q02643 23-423 E123A): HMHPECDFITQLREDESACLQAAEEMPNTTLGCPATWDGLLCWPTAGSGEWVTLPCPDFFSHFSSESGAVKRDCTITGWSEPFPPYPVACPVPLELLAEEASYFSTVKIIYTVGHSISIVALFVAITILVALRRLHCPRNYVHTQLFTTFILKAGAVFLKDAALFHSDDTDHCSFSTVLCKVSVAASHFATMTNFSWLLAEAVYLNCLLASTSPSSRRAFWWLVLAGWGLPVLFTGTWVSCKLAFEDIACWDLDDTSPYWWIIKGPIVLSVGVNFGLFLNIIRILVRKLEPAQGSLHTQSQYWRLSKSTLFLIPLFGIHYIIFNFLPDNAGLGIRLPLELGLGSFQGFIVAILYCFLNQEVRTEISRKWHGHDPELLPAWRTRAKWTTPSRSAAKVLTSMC
From the text: as §1, §2

GHRHR H194A = biological target: T3, GHRHR H194A (Homo sapiens, UniProt Q02643, H194A); assay: cAMP accumulation, H194A; conditions: mean ± SEM, n ≥ 3
T3 construct: GHRHR(23-423)-; HA signal peptide (replaces native signal M1-G22) (N); expressed in transfected cells; host or cells: HEK 293T, pcDNA3.1, transient
T3 sequence (Q02643 23-423 H194A): as the sequence (Q02643 23-423 E123A) above, with A101E, H172A counted along it
From the text: as §1, §2

GHRHR L358A = biological target: T4, GHRHR L358A (Homo sapiens, UniProt Q02643, L358A); assay: cAMP accumulation, L358A; conditions: mean ± SEM, n ≥ 3
T4 construct: GHRHR(23-423)-; HA signal peptide (replaces native signal M1-G22) (N); expressed in transfected cells; host or cells: HEK 293 T
T4 sequence (Q02643 23-423 L358A): as the sequence (Q02643 23-423 E123A) above, with A101E, L336A counted along it
From the text: as §1, §2

GHRHR N346A = biological target: T5, GHRHR N346A (Homo sapiens, UniProt Q02643, N346A); assay: cAMP accumulation, N346A; conditions: mean ± SEM, n ≥ 3
T5 construct: GHRHR(23-423)-; HA signal peptide (replaces native signal M1-G22) (N); expressed in transfected cells; host or cells: HEK 293T, pcDNA3.1, transient
T5 sequence (Q02643 23-423 N346A): as the sequence (Q02643 23-423 E123A) above, with A101E, N324A counted along it
From the text: as §1, §2

GHRHR(23-423) (WT) = biological target: T6, GHRHR(23-423) (WT) (Homo sapiens, UniProt Q02643); assay: cAMP accumulation, construct GHRHR(23-423) (WT) (Supplementary Fig. 2b); conditions: HEK 293T; mean ± SEM, n = 8-10
T6 construct: 24 h after transfection with GHRHR(23-423), GHRHR(23-405), GHRHR(23-405)-LgBiT-2MBP, or HA-Flag-GHRHR (WT and mutants); HA signal peptide (replaces native signal M1-G22) (N); expressed in transfected cells; host or cells: HEK 293 T
T6 sequence (Q02643 23-423): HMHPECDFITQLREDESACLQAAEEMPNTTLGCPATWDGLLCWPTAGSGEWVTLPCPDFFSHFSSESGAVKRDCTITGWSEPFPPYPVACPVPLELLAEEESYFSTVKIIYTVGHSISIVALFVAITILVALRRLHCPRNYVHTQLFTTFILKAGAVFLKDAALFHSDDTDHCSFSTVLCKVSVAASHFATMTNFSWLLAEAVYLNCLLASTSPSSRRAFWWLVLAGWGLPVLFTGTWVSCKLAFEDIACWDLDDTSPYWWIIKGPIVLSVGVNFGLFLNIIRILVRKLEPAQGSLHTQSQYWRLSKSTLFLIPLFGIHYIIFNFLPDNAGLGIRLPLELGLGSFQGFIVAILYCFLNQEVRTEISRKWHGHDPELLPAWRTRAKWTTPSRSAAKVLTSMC
Experimental: (§3) GHRH-stimulated cAMP accumulation was measured by a LANCE Ultra cAMP kit (PerkinElmer). Briefly, 24 h after transfection with GHRHR(23-423), GHRHR(23-405), GHRHR(23-405)-LgBiT-2MBP, or HA-Flag-GHRHR (WT and mutants), HEK 293 T cells (3000/well in 384-well white plates, PerkinElmer) were digested by 0.2% (w/v) EDTA and 5 μL stimulation buffer (HBSS supplemented with 5 mM HEPES, 0.5 mM IBMX, and 0.1% (w/v) BSA, pH 7.4). Different concentrations (5 μL) of GHRH were then added and the stimulation lasted for 30 min at RT. The reaction was stopped by adding 5 μL Eu-cAMP tracer and 5 μL ULight-anti-cAMP. After 1 h RT incubation, TR-FRET signals (excitation: 320 nm, emission: 615 and 665 nm) were measured by an EnVision (PerkinElmer).
(§4) 223 Supplementary Ta b l e 1. Effects of GHRH-mediated cAMP accumulation.
(§5) Receptor cAMP Cell surface expression Binding
(§6) pEC50 Emax (% WT) (% WT) pIC50 […]
(§7) 225 to determine pEC50 and Emax values. pEC50 is the negative logarithm of the molar
(§8) 226 concentration of agonist that induced half the maximal response. Cell surface […]
(§9) 228 Flag antibody (Sigma-Aldrich, 1:300); Donkey anti-Mouse Alexa Fluor 488-
(§10) 229 conjugated secondary antibody, (ThermoFisher Scientific, 1:1000)] on the […]
(§11) 231 Binding data were analyzed using a three-parameter logistic equation to […]
(§12) 234 determine statistical difference. *P<0.01; ND, not determined.

GHRHR(23-405) = biological target: T7, GHRHR(23-405) (Homo sapiens, UniProt Q02643); assay: cAMP accumulation, construct GHRHR(23-405) (Supplementary Fig. 2b); conditions: HEK 293T; mean ± SEM, n = 8-10
T7 construct: 24 h after transfection with GHRHR(23-423), GHRHR(23-405), GHRHR(23-405)-LgBiT-2MBP, or HA-Flag-GHRHR (WT and mutants); HA signal peptide (replaces native signal M1-G22) (N); expressed in transfected cells; host or cells: HEK 293 T
Experimental: as §3, §4, §5, §6, §7, §8, §9, §10, §11, §12

GHRHR R357A = biological target: T8, GHRHR R357A (Homo sapiens, UniProt Q02643, R357A); assay: cAMP accumulation, R357A; conditions: mean ± SEM, n ≥ 3
T8 construct: GHRHR(23-423)-; HA signal peptide (replaces native signal M1-G22) (N); expressed in transfected cells; host or cells: HEK 293 T
T8 sequence (Q02643 23-423 R357A): as the sequence (Q02643 23-423 E123A) above, with A101E, R335A counted along it
From the text: as §1, §2

GHRHR A271R = biological target: T9, GHRHR A271R (Homo sapiens, UniProt Q02643, A271R); assay: cAMP accumulation, A271R; conditions: mean ± SEM, n ≥ 3
T9 construct: GHRHR(23-423)-; HA signal peptide (replaces native signal M1-G22) (N); expressed in transfected cells; host or cells: HEK 293T, pcDNA3.1, transient
T9 sequence (Q02643 23-423 A271R): as the sequence (Q02643 23-423 E123A) above, with A101E, A249R counted along it
From the text: as §1, §2

GHRHR D274A = biological target: T10, GHRHR D274A (Homo sapiens, UniProt Q02643, D274A); assay: cAMP accumulation, D274A; conditions: mean ± SEM, n ≥ 3
T10 construct: GHRHR(23-423)-; HA signal peptide (replaces native signal M1-G22) (N); expressed in transfected cells; host or cells: HEK 293T, pcDNA3.1, transient
T10 sequence (Q02643 23-423 D274A): as the sequence (Q02643 23-423 E123A) above, with A101E, D252A counted along it
From the text: as §1, §2

GHRHR V179A = biological target: T11, GHRHR V179A (Homo sapiens, UniProt Q02643, V179A); assay: cAMP accumulation, V179A; conditions: mean ± SEM, n ≥ 3
T11 construct: GHRHR(23-423)-; HA signal peptide (replaces native signal M1-G22) (N); expressed in transfected cells; host or cells: HEK 293T, pcDNA3.1, transient
T11 sequence (Q02643 23-423 V179A): as the sequence (Q02643 23-423 E123A) above, with A101E, V157A counted along it
From the text: as §1, §2

GHRHR W282A = biological target: T12, GHRHR W282A (Homo sapiens, UniProt Q02643, W282A); assay: cAMP accumulation, W282A; conditions: mean ± SEM, n ≥ 3
T12 construct: GHRHR(23-423)-; HA signal peptide (replaces native signal M1-G22) (N); expressed in transfected cells; host or cells: HEK 293T, pcDNA3.1, transient
T12 sequence (Q02643 23-423 W282A): as the sequence (Q02643 23-423 E123A) above, with A101E, W260A counted along it
From the text: as §1, §2

T1 sequence (Q02643 23-423 V129A): as the sequence (Q02643 23-423 E123A) above, with A101E, V107A counted along it

CC[C@H](C)[C@H](NC(=O)[C@H](C)NC(=O)[C@H](CC(=O)O)NC(=O)[C@H](C)NC(=O)[C@@H](N)Cc1ccc(O)cc1)C(=O)N[C@@H](Cc1ccccc1)C(=O)N[C@H](C(=O)N[C@@H](CC(N)=O)C(=O)N[C@@H](CO)C(=O)N[C@@H](Cc1ccc(O)cc1)C(=O)N[C@@H](CCCNC(=N)N)C(=O)N[C@@H](CCCCN)C(=O)N[C@H](C(=O)N[C@@H](CC(C)C)C(=O)NCC(=O)N[C@@H](CCC(N)=O)C(=O)N[C@@H](CC(C)C)C(=O)N[C@@H](CO)C(=O)N[C@@H](C)C(=O)N[C@@H](CCCNC(=N)N)C(=O)N[C@@H](CCCCN)C(=O)N[C@@H](CC(C)C)C(=O)N[C@@H](CC(C)C)C(=O)N[C@@H](CCC(N)=O)C(=O)N[C@@H](CC(=O)O)C(=O)N[C@H](C(=O)N[C@@H](CCSC)C(=O)N[C@@H](CO)C(=O)N[C@@H](CCCNC(=N)N)C(=O)N[C@@H](CCC(N)=O)C(=O)N[C@@H](CCC(N)=O)C(=O)NCC(=O)N[C@@H](CCC(=O)O)C(=O)N[C@@H](CO)C(=O)N[C@@H](CC(N)=O)C(=O)N[C@@H](CCC(N)=O)C(=O)N[C@@H](CCC(=O)O)C(=O)N[C@@H](CCCNC(=N)N)C(=O)NCC(=O)N[C@@H](C)C(=O)N[C@@H](CCCNC(=N)N)C(=O)N[C@@H](C)C(=O)N[C@@H](CCCNC(=N)N)C(=O)N[C@@H](CC(C)C)C(N)=O)[C@@H](C)CC)C(C)C)[C@@H](C)O [GHRH, Growth hormone-releasing hormone]
EC50 (GHRHR V129A): 166 nM | Emax (GHRHR V129A): 24.33±6.11 % WT | EC50 (GHRHR E123A): 0.0724 nM | Emax (GHRHR E123A): 100.33±1.34 % WT | EC50 (GHRHR H194A): 0.251 nM | Emax (GHRHR H194A): 98.01±1.25 % WT | EC50 (GHRHR L358A): 1.05 nM | Emax (GHRHR L358A): 100.3±1.21 % WT | EC50 (GHRHR N346A): 1.41 nM | Emax (GHRHR N346A): 101.21±3.69 % WT | EC50 (GHRHR(23-423) (WT)): 0.631 nM | Emax (GHRHR(23-423) (WT)): 100 % WT | EC50 (GHRHR(23-405)): 0.871 nM | Emax (GHRHR(23-405)): 120.55±1.97 % WT | EC50 (GHRHR R357A): 135 nM | Emax (GHRHR R357A): 60.05±5.19 % WT | EC50 (GHRHR A271R): 0.105 nM | Emax (GHRHR A271R): 100.81±1.19 % WT | EC50 (GHRHR D274A): 0.468 nM | Emax (GHRHR D274A): 99.78±2.32 % WT | EC50 (GHRHR V179A): 0.288 nM | Emax (GHRHR V179A): 101.24±3.06 % WT | EC50 (GHRHR W282A): 13.2 nM | Emax (GHRHR W282A): 101.88±5.62 % WT
